From PMC7932537, “Quantitative profiling of protease specificity” (PLoS Computational Biology, 2021)

Key:
MMP-9 [1] = target: MMP-9 (Homo sapiens, UniProt P14780); assay: K(obs) of individual phage substrates (set of 1369); assay type: biochemical; settings: MMP9; individual phage substrate of the set of 1369 peptides; dash in sequence marks cleavage position
MMP-2 = target: T1, MMP-2 (Homo sapiens, UniProt P08253); assay: as above; assay type: biochemical; settings: MMP2; individual phage substrate from the set of 1369 peptides; hyphen in the sequence marks the cleavage position
T1 sequence (P08253 110-660): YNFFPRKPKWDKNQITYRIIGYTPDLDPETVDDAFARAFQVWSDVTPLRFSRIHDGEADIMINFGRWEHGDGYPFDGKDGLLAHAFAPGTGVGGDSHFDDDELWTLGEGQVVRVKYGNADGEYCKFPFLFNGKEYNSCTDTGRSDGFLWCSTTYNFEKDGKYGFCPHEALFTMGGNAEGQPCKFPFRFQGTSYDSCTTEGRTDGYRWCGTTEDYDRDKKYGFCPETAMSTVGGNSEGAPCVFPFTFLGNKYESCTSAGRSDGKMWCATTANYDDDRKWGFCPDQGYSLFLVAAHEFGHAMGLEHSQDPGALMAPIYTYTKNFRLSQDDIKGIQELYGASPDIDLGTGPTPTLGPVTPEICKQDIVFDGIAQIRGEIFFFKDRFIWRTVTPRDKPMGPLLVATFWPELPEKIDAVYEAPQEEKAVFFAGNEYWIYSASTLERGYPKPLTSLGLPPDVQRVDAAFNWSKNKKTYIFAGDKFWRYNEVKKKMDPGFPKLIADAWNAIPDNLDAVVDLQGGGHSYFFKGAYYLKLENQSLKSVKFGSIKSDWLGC

MMP-9 [2] = assay: Substrate phage display with NGS: relative probability (RP) of P3-P1' tetramer clusters; assay type: biochemical, human; settings: MMP9; RP of the substrate's P3-P1' tetramer, substrate phage display with NGS;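 note: ratio of tetramer probability after protease selection to that in naive phage library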

Chain of MMP-9 (Homo sapiens, UniProt P14780) (P14780 94-707): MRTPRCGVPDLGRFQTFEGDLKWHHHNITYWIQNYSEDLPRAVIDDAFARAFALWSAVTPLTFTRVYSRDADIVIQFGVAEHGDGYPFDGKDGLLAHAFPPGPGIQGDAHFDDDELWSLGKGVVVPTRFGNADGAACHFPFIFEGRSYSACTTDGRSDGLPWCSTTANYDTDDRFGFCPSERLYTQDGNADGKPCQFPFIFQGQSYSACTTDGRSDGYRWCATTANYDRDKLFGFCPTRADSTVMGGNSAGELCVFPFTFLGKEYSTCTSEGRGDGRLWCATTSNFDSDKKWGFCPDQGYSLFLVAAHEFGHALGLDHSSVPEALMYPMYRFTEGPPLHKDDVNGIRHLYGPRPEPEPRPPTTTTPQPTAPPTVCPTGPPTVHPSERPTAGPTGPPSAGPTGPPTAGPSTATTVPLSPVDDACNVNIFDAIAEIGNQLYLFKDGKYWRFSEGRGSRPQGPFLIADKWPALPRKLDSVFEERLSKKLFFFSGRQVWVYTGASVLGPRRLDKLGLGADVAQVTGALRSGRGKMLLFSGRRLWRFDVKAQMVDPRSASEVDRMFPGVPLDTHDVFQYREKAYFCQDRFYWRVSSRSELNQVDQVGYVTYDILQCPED

Substance | Kobs (MMP-9 [1]) [M⁻¹ s⁻¹] | Kobs (MMP-2) [M⁻¹ s⁻¹] | relative probability (RP) (MMP-9 [2])
GRPSF-LKTAS | 8321.48 | 12792.1 | 37.0272
SGVWN-LMSTA | 12792.1 | 3438.54 | 38.922
MSPKG-VTASG | 12792.1 | 12792.1 | 38.7703
GVPRY-LRTAS | 12792.1 | 12792.1 | 44.5304
SGASN-LRGTA | 12792.1 | 12792.1 | 27.6194
LIPTS-LTASG | 12792.1 | 12792.1 | 31.9505
SGALN-FYSTA | 8941.32 | 2761.81 | 19.1713
KYHAW-MTASG | 27.918 | 7386.83 | 0.08727
PKPAR-LTASG | 12792.1 | 12792.1 | 40.1634
TPPSS-LTASG | 12792.1 | 12792.1 | 46.2595
KSPTG-LTASG | 8321.48 | 10866.7 | 39.8897
SSPLA-LTASG | 12792.1 | 12792.1 | 48.3776
IFARS-LTASG | 12792.1 | 12792.1 | 26.1862
LQLAL-YTASG | 912.511 | 12792.1 | 1.077
YIPTA-FTASG | 9740.44 | 12792.1 | 24.5969
RLPIN-LTASG | 12792.1 | 12792.1 | 44.8884
SGPRF-LIGTA | 6131.32 | 3964.21 | 42.4535
SGPVS-MRYTA | 7015.91 | 12792.1 | 41.2029

Substance | Kobs (MMP-9 [1]) [M⁻¹ s⁻¹] | Kobs (MMP-2) [M⁻¹ s⁻¹] | relative probability (RP) (MMP-9 [2])
PSLGQ-LTASG | 56.119 | 12792.1 | 2.507
VLLGN-FTASG | 690.17 | 12792.1 | 0.6963
SCVRM-MTASG | 1561.44 | 1373.05 | 24.5728
PQMGS-LTASG | 201.585 | 12792.1 | 3.398
SKPWK-LTASG | 12792.1 | 1561.44 | 43.1496
EAIGR-LTASG | 517.582 | 12792.1 | 4.541
TVLGN-LTASG | 690.17 | 12792.1 | 10.3813
SGAYN-FQATA | 12792.1 | 3438.54 | 19.0941
WGTLA-LTASG | 4613.14 | 1112.44 | 8.919
SGPRN-YHGTA | 12792.1 | 12792.1 | 46.9938
FQIGS-LTASG | 1465.65 | 12792.1 | 7.1912
EWPSR-MTASG | 3964.21 | 6396.07 | 33.7336
RDLGF-LTASG | 0 | 12792.1 | 3.437
KMPST-LTASG | 6396.07 | 12792.1 | 36.3405
SGVAG-LYSTA | 7015.91 | 12792.1 | 21.512
ESIRH-LTASG | 5667.28 | 12792.1 | 35.7683
HTVRN-VTASG | 3079.62 | 5269.78 | 19.0254
GGPAP-MWTAS | 5667.28 | 2476.66 | 45.1106

Continued, in another order:

Kobs (MMP-9 [1]) [M⁻¹ s⁻¹] | Kobs (MMP-2) [M⁻¹ s⁻¹] | Substance | relative probability (RP) (MMP-9 [2])
12792.1 | 1071.29 | TVPWS-VTASG | 31.0554
12792.1 | 12792.1 | NPPSH-LTASG | 43.8368
6396.07 | 1418.96 | SGPVA-MTKTA | 44.6624
1239.69 | 8941.32 | VYPGK-MTASG | 16.9669
12792.1 | 12792.1 | GVPSK-LTASG | 38.9571
1239.69 | 0 | YIPLV-YTASG | 9.417
5461.43 | 0 | SNPFK-YTASG | 32.6605
1327.88 | 12792.1 | NIPTR-LTASG | 15.5872
12792.1 | 12792.1 | KAPAH-LTASG | 44.1453
6688.74 | 1816.46 | RLPKL-LTASG | 35.7561
12792.1 | 12792.1 | RLPYP-LTASG | 48.6636
7815.03 | 690.17 | FEPQR-MTASG | 31.7168
12792.1 | 12792.1 | GSPRN-LRTAS | 48.2698
6131.32 | 451.441 | FIPMW-STASG | 27.7553
12792.1 | 1154.21 | RQPFL-LTASG | 33.1122
12792.1 | 12792.1 | SRPRT-LTASG | 42.2705
3850.82 | 12792.1 | GRPSP-FWTAS | 37.3217

Kobs (MMP-9 [1]) [M⁻¹ s⁻¹] | Kobs (MMP-2) [M⁻¹ s⁻¹] | Substance | relative probability (RP) (MMP-9 [2])
6396.07 | 4763.33 | GFTRW-LTASG | 25.6075
12792.1 | 12792.1 | AMPKH-LTASG | 46.5072
0 | 12792.1 | GYFAN-LTASG | 0.8121
7015.91 | 1071.29 | SGVRW-STSTA | 18.5117
12792.1 | 12792.1 | IGVRA-LTASG | 43.1929
12792.1 | 12792.1 | LGPSH-YTASG | 38.4805
12792.1 | 12792.1 | HMPLG-LTASG | 48.9856
9740.44 | 12792.1 | SGPAS-LLNTA | 46.2982
12792.1 | 12792.1 | RTPKG-LTASG | 48.4124
8941.32 | 12792.1 | WNPSY-LTASG | 40.8983
12792.1 | 12792.1 | SGPWA-ITGTA | 50.8721
6688.74 | 12792.1 | GVLRN-LITAS | 37.603
654.784 | 12792.1 | TMLLA-LTASG | 6.729
0 | 4335.13 | RDMSY-LTASG | 0.7522
0 | 12792.1 | PKLAA-ITASG | 1.188
585.336 | 12792.1 | PTLQY-LTASG | 2.48
12792.1 | 12792.1 | SGPRS-LKSTA | 44.7764
